In ChEMBL document CHEMBL4196009, “Novel vitexin-inspired scaffold against leukemia” (Eur J Med Chem, 2018):

Tests used:
KOPN-8 = experiment: Antiproliferative activity against human KOPN8 cells after 72 hrs by CelTiter-Glo assay; format: functional, cell-based; settings: KOPN-8, 72 h
SEM cells = experiment: Antiproliferative activity against human SEM cells after 72 hrs by CelTiter-Glo assay; format: functional, cell-based
SUP-B15 = experiment: Antiproliferative activity against human SUP-B15 cells after 72 hrs by CelTiter-Glo assay; format: functional, cell-based; settings: SUP-B15, 72 h
UoC-B1 = experiment: Antiproliferative activity against human UOCB1 cells after 72 hrs by CelTiter-Glo assay; format: functional, cell-based; settings: UoC-B1, 72 h
HepG2 = experiment: Antiproliferative activity against human HepG2 cells after 72 hrs by CelTiter-Glo assay; format: functional, cell-based; settings: HepG2, 72 h
BJ = experiment: Antiproliferative activity against human BJ cells after 72 hrs by CelTiter-Glo assay; format: cell-based
THLE-2 = experiment: Antiproliferative activity against human THLE2 cells after 72 hrs by CelTiter-Glo assay; format: cell-based; settings: THLE-2, 72 h

| SMILES | EC50 (HepG2) [µM] | EC50 (KOPN-8) [µM] | EC50 (SEM cells) [µM] | EC50 (SUP-B15) [µM] | EC50 (UoC-B1) [µM] | EC50 (BJ) [µM] | EC50 (THLE-2) [µM] |
| --- | --- | --- | --- | --- | --- | --- | --- |
| COC(=O)c1cc(=O)c2cc(NC(=O)Nc3ccc(C(F)(F)F)cc3)ccc2[nH]1 | > 6.35 | > 6.35 | > 6.35 | 3.27 | > 6.35 | > 12.6 |  |
| CCOC(=O)[C@H](Cc1ccccc1)NC(=O)Nc1ccc2[nH]c(C(=O)OC)cc(=O)c2c1 | > 13.9 | > 13.9 | > 13.9 | 16.5 | > 13.9 | > 27.6 |  |
| COC(=O)c1cc(=O)c2cc(NC(=O)NCCc3cccs3)ccc2[nH]1 | > 9.81 | > 9.81 | > 9.81 | > 19.5 | > 9.81 | > 19.5 |  |
| COC(=O)c1cc(=O)c2cc(NC(=O)Nc3ccc4c(c3)OCCO4)ccc2[nH]1 | > 13.3 | > 13.3 | > 13.3 | > 26.4 | > 13.3 | > 26.4 |  |
| COC(=O)c1cc(=O)c2cc(NC(=O)Nc3ccc(F)c(Cl)c3)ccc2[nH]1 | > 6.35 | > 6.35 | > 6.35 | > 12.6 | > 6.35 | > 12.6 |  |
| COc1ccc(Oc2ccc(C(F)(F)F)cc2NC(=O)c2cc(=O)c3c(OC)cc(OC)cc3[nH]2)cc1 | 5.3 | > 67.2 | > 67.2 | > 67.2 | > 67.2 | > 67.2 |  |
| COc1ccc(-c2cc(=O)c3c(OC)cc(OC)cc3n2C)cc1 |  | 30 | 26 | 28 |  | 68 |  |
| COC(=O)c1cc(=O)c2cc(NC(=O)Nc3ccc4c(c3)CCC4)ccc2[nH]1 | > 24.1 | > 24.1 | > 24.1 | > 24.1 | > 24.1 | > 24.1 |  |
| Nc1ccc2nc(C(=O)O)cc(O)c2c1 |  |  | 29 | 46 |  | 371 |  |
| COC(=O)c1cc(=O)c2cc(NC(=O)NC34CC5CC(CC(C5)C3)C4)ccc2[nH]1 | > 16.2 | > 16.2 | > 16.2 | 9.1 | > 16.2 | > 32.2 |  |
| COc1cc(OC)c2c(=O)cc(C(=O)Nc3cc(C(F)(F)F)ccc3Oc3ccccc3OC)[nH]c2c1 | 10.7 | > 53.4 | 10.8 | > 53.4 |  | > 53.4 |  |
| COC(=O)c1cc(=O)c2cc(NC(=O)Nc3ccc(Cl)c(Cl)c3)ccc2[nH]1 | > 6.35 | > 6.35 | > 6.35 | 5.52 | > 6.35 | > 12.6 |  |
| COC(=O)c1cc(=O)c2cc(NC(=O)Nc3ccc(C(F)(F)F)cc3[N+](=O)[O-])ccc2[nH]1 | > 26 | > 26 | 22.5 | > 51.7 | > 26 | > 51.7 |  |
| COC(=O)c1cc(=O)c2cc(NC(=O)Nc3cccc(C(C)=O)c3)ccc2[nH]1 | > 8.08 | > 8.08 | > 8.08 | 11.4 | > 8.08 | > 16.1 |  |
| C=C(C)c1cccc(C(C)(C)NC(=O)Nc2ccc3[nH]c(C(=O)OC)cc(=O)c3c2)c1 | > 11.5 | > 11.5 | > 11.5 | > 23 | > 11.5 | > 23 |  |
| COC(=O)c1cc(=O)c2cc(NC(=O)NC3c4ccccc4-c4ccccc43)ccc2[nH]1 | > 12.1 | > 12.1 | > 12.1 | > 24.1 | > 12.1 | > 24.1 |  |
| C=CCNC(=O)Nc1ccc2c(c1)c(=O)cc(C(=O)OC)n2C(=O)NCC=C | > 43.3 | > 43.3 | > 43.3 | 86.2 | > 43.3 | 86.2 |  |
| COC(=O)c1cc(=O)c2cc(N)ccc2[nH]1 | > 33.8 | > 33.8 | > 33.8 | > 67.2 | > 33.8 | > 67.2 |  |
| COC(=O)c1cc(=O)c2cc([N+](=O)[O-])ccc2[nH]1 | > 41.6 | > 41.6 | > 41.6 | 76.5 | > 41.6 | > 82.8 |  |
| COC(=O)c1cc(=O)c2cc(NC(=O)Nc3ccc4c(c3)CCN4C)ccc2[nH]1 | > 86.2 | > 86.2 | > 86.2 | > 86.2 | > 86.2 | > 86.2 |  |
| COC(=O)c1cc(=O)c2cc(NC(=O)N[C@@H](C)c3cccc(OC)c3)ccc2[nH]1 | > 25.3 | > 25.3 | > 25.3 | > 25.3 | > 25.3 | > 25.3 |  |
| COC(=O)c1cc(=O)c2cc(NC(=O)Nc3cc(F)cc(C(F)(F)F)c3)ccc2[nH]1 | > 20.2 | > 20.2 | > 20.2 | > 40.2 | > 20.2 | > 40.2 |  |
| COC(=O)c1cc(=O)c2cc(NC(=O)NCc3ccccc3)ccc2[nH]1 | > 19.5 | > 19.5 | > 19.5 | > 19.5 | > 19.5 | > 19.5 |  |
| COc1cc(OC)c2c(=O)cc(C(=O)Nc3ccc4oc(-c5ccc(F)cc5)nc4c3)[nH]c2c1 | > 36.8 | > 36.8 | > 36.8 | > 36.8 | > 36.8 | > 36.8 |  |
| O=c1c(-c2ccc(O)cc2)coc2cc(O)cc(O)c12 [GENISTEIN] | 67.7 | > 86.2 | 59.3 | > 86.2 | 35.7 | > 86.2 |  |
| COC(=O)c1cc(=O)c2cc(NC(=O)Nc3cc(OC)c(OC)c(OC)c3)ccc2[nH]1 | > 43.3 | > 43.3 | > 43.3 | > 86.2 | > 43.3 | > 86.2 |  |
| COc1cc(OC)c2c(=O)cc(C(=O)Nc3ccc(Oc4ccc([N+](=O)[O-])cc4)cc3)[nH]c2c1 | > 23 | 20.5 | 0.48 | 4.3 |  | > 23 | 90 |

Now from value to compound, other results behind:

| EC50 (HepG2) [µM] | SMILES | EC50 (KOPN-8) [µM] | EC50 (SEM cells) [µM] | EC50 (SUP-B15) [µM] | EC50 (UoC-B1) [µM] | EC50 (BJ) [µM] | EC50 (THLE-2) [µM] |
| --- | --- | --- | --- | --- | --- | --- | --- |
| > 19 | COC(=O)c1cc(=O)c2c(OC)cc(OC)cc2n1C | > 19 | > 19 | > 37.9 | 0.773 | > 37.9 |  |
| > 31.2 | COc1ccc(-c2cc(=O)c3c(OC)cc(OC)cc3[nH]2)cc1 | > 31.2 | > 31.2 | > 62.1 | > 31.2 | > 62.1 |  |
| > 34.5 | COC(=O)c1cc(=O)c2c(OC)cc(OC)cc2[nH]1 | > 34.5 | > 34.5 | 16.1 | > 34.5 | > 34.5 |  |
| > 77 | COc1cc(OC)c2c(=O)cc(C(=O)Nc3ccc(-n4cccc4)cc3)[nH]c2c1 | > 77 | > 77 | > 77 | 51.8 | > 77 |  |
| > 19.8 | COc1cc(OC)c2c(=O)cc(C(=O)Nc3ccc(N4CCN(C)CC4)cc3)[nH]c2c1 | > 19.8 | > 19.8 | > 19.8 | > 19.8 | > 19.8 |  |
| > 54 | COc1cc(OC)c2c(=O)cc(C(=O)Nc3cccc(-c4nccs4)c3)[nH]c2c1 | > 54 | > 54 | > 54 | > 54 | > 54 |  |
| > 17.3 | COc1ccc(-c2cc(=O)c3c(OC)cc(OC)cc3n2Cc2ccccc2)cc1 | > 17.3 | > 17.3 | > 34.5 | > 17.3 | > 34.5 |  |
| > 32.2 | COc1cc(OC)c2c(=O)cc(C(=O)Nc3ccc(Oc4cccnc4)cc3)[nH]c2c1 | > 32.2 | > 32.2 | > 32.2 | 27.7 | > 32.2 |  |
| > 16.4 | COc1cc(OC)c2c(=O)cc(C(=O)Nc3cccc(-n4ccnc4)c3)[nH]c2c1 | > 16.4 | > 16.4 | > 16.4 | > 16.4 | > 16.4 |  |
| > 34.5 | COc1ccc(-c2cc(=O)c3c(OC)cc(OC)cc3n2S(=O)(=O)c2c(F)c(F)c(F)c(F)c2F)cc1 | > 34.5 | 3.9 | 4.1 |  | > 34.5 |  |
| > 27.7 | COc1cc(OC)c2c(=O)cc(-c3ccc4c(c3)OCO4)[nH]c2c1 | > 27.7 | > 27.7 | 18.8 | > 27.7 | > 55.2 |  |
| > 58.6 | COc1cc(OC)c2c(=O)cc(C(=O)Nc3cccc(N4CCCC4)c3)[nH]c2c1 | > 58.6 | > 58.6 | > 58.6 | > 58.6 | > 58.6 |  |
| > 20 | COC(=O)c1cc(=O)c2c(OC)cc(OC)cc2n1S(=O)(=O)c1ccc(C)cc1 | 6 | 5.8 | 9.7 |  | 139 | 149 |
| > 17.2 | COc1ccc(-c2cc(=O)c3c(OC)cc(OC)cc3n2S(=O)(=O)c2ccc(C#N)cc2)cc1 | > 17.2 | 1.3 | 7.9 |  | > 17.2 |  |
| > 50 | COc1cc(OC)c2c(=O)cc(C(=O)Nc3ccc(Oc4ccc(F)cc4)cc3)[nH]c2c1 | > 50 | > 50 | > 50 | > 50 | > 50 |  |
| > 20 | C=CCNC(=O)n1c(-c2ccc(OC)cc2)cc(=O)c2c(OC)cc(OC)cc21 | 12 | 12 | 16 |  | 74 |  |
| > 86.2 | COc1ccc(-c2[nH]c3cc(OC)cc(OC)c3c(=O)c2I)cc1 | 49.4 |  | > 86.2 |  | > 86.2 |  |
